According to PMC3486926 (Journal of the American Chemical Society, 2012):

Target: LmbR (C-His6-LmbR) (Streptomyces lincolnensis, UniProt Q54372)
Assay: HPLC with charged aerosol detection, ESI-MS of product
Assay type: biochemical
Details: C5 acceptor, 10 mM; co-substrate F6P 10 mM

Compound | HPLC with charged aerosol detection, ESI-MS of product
O=P(O)(O)OC[C@H]1OC(O)[C@H](O)[C@@H]1O (stereo partly drawn) [8a, D-ribose 5-phosphate] | LmbR can accept both R5P (8a) and X5P (8b) as the C5 substrate
O=P(O)(O)OC[C@H]1OC(O)[C@H](O)[C@H]1O (stereo partly drawn) [8b, D-xylose 5-phosphate] | LmbR can accept both R5P (8a) and X5P (8b) as the C5 substrate
